Activity calls are given as the source filed them. No cut-off for these calls is given here.
Key:
Adenosine receptor A2a = Adenosine receptor A2a (Homo sapiens, UniProt P29274); experiment: Inhibition of A2A receptor (unknown origin)
[1] = molecular target: T1, Mitogen-activated protein kinase kinase kinase 5 (Mus musculus) (UniProt O35099); experiment: In vivo inhibition of ASK1 in Tg4510 mouse model of Alzheimer's disease assessed as reduction in MCP-1 levels in cortex at 3 to 30 mg/kg, po BID for 3 days measured after 4 hrs post last dose by ELISA; format: functional, organism-based; details: dose 3-30 mg/kg, time 3.0 day
T1 sequence (whole entry): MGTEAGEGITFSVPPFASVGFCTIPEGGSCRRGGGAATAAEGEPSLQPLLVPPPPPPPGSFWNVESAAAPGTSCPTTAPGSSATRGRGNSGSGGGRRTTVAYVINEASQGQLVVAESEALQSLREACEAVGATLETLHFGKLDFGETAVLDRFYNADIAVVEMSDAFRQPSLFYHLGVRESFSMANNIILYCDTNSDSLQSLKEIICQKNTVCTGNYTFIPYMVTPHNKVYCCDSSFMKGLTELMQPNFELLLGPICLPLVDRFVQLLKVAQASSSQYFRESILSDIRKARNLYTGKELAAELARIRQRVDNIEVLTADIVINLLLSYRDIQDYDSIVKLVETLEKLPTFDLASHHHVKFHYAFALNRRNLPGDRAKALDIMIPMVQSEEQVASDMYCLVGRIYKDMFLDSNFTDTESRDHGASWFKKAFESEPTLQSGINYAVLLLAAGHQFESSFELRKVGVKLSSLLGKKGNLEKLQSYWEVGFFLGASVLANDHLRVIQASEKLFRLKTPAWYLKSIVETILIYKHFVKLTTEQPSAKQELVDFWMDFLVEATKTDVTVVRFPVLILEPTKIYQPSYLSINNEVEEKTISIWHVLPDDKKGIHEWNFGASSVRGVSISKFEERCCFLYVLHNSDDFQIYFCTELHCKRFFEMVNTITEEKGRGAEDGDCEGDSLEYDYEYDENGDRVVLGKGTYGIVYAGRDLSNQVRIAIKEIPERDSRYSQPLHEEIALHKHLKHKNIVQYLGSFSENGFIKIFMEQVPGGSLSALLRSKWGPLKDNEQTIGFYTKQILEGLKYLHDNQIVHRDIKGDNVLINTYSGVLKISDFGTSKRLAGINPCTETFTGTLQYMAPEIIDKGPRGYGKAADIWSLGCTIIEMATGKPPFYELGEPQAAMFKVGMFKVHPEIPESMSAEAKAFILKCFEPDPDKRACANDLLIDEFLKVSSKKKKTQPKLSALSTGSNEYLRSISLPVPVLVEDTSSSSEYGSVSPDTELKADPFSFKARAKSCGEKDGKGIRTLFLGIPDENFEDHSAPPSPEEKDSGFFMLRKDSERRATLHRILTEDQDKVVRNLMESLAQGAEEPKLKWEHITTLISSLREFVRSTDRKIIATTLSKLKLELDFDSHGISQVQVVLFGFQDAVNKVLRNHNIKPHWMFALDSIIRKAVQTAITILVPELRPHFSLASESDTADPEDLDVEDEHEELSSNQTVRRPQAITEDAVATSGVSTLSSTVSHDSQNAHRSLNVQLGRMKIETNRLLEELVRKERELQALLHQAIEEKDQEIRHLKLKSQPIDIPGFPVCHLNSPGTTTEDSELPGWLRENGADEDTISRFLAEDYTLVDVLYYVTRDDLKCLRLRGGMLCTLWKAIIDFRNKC

[2] = molecular target: T1, Mitogen-activated protein kinase kinase kinase 5 (Mus musculus); experiment: In vivo inhibition of ASK1 in Tg4510 mouse model of Alzheimer's disease assessed as reduction in IL-1beta levels in cortex at 3 to 30 mg/kg, po BID for 3 days measured after 4 hrs post last dose by ELISA; format: functional, organism-based; details: dose 3-30 mg/kg, time 3.0 day
[3] = molecular target: T2, Mitogen-activated protein kinase kinase kinase 5 (Homo sapiens, UniProt Q99683); experiment: Inhibition of full-length human ASK1 expressed in HEK293T cells assessed as reduction in autophosphorylation of ASK1 at […] residue incubated for 1 hr; format: cell-based
T2 sequence (Q99683 whole entry): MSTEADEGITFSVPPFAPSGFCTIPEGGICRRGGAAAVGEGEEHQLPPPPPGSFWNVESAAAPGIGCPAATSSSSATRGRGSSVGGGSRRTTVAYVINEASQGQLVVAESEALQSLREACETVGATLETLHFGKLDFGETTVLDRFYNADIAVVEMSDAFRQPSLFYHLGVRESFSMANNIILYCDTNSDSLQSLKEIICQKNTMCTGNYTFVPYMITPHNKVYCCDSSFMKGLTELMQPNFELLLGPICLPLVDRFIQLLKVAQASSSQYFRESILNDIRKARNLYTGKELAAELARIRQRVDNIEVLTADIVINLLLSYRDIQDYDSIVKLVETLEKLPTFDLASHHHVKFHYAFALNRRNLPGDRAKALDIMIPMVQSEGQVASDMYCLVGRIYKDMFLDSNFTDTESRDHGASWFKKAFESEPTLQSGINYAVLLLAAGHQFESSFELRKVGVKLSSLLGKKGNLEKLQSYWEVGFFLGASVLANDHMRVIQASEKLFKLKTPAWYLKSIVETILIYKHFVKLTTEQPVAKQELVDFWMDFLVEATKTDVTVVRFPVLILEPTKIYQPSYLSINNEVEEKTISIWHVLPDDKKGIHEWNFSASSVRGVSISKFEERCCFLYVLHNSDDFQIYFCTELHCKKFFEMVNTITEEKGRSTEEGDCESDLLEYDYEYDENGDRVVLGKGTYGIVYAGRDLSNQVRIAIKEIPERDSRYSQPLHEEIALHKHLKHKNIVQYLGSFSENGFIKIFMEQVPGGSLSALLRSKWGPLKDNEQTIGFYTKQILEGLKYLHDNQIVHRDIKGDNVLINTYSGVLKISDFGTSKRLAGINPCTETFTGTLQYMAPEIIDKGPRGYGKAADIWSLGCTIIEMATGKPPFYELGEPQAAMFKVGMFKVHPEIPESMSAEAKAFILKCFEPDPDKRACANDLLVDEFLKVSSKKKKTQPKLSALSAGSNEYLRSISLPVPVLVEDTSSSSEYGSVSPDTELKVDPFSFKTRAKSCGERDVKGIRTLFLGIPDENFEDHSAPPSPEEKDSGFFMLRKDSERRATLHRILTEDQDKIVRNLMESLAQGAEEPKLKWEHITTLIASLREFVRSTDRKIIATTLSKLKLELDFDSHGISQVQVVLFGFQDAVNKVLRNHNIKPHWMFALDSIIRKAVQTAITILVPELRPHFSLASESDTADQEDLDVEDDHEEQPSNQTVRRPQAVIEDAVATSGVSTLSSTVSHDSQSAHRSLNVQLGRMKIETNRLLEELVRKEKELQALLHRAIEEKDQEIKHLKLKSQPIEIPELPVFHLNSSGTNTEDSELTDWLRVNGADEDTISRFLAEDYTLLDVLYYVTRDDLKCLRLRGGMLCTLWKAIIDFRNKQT

[4] = molecular target: T2, Mitogen-activated protein kinase kinase kinase 5; experiment: Inhibition of ASK1 (unknown origin) using myelin basic protein as substrate preincubated for 20 mins followed by 33P-ATP addition and measured after 2 hrs
[5] = molecular target: 5-hydroxytryptamine receptor 2B (Homo sapiens, UniProt P41595); experiment: Inhibition of 5HT2B receptor (unknown origin)
[6] = molecular target: T1, Mitogen-activated protein kinase kinase kinase 5 (Mus musculus); experiment: In vivo inhibition of ASK1 in Tg4510 mouse model of Alzheimer's disease assessed as reduction in KC/GRO levels in cortex at 3 to 30 mg/kg, po BID for 3 days measured after 4 hrs post last dose by ELISA; format: functional, organism-based; details: dose 3-30 mg/kg, time 3.0 day

5-hydroxytryptamine receptor 2B, sequence (P41595 whole entry): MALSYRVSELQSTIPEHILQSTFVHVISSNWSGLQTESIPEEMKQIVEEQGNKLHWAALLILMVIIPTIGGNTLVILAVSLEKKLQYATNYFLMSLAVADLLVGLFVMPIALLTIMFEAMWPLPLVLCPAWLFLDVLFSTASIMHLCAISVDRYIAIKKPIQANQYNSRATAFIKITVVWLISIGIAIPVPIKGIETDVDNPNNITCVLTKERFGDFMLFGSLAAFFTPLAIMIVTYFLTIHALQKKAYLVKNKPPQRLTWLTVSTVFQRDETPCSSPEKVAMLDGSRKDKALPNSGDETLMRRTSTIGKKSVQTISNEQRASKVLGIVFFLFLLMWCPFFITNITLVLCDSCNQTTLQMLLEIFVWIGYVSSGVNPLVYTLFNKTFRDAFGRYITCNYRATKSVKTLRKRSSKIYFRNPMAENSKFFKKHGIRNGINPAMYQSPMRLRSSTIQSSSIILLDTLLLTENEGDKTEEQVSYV
Adenosine receptor A2a, sequence (P29274 whole entry): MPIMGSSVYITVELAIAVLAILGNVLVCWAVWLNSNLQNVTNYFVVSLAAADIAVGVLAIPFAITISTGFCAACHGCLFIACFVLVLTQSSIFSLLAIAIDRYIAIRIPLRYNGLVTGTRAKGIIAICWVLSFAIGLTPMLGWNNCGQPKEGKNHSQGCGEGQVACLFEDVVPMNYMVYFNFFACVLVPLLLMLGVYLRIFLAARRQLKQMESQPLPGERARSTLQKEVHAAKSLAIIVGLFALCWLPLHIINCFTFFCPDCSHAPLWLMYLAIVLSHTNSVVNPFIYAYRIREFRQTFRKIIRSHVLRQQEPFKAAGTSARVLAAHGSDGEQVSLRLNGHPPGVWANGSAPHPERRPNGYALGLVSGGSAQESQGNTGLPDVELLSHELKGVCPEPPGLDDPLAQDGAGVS

## COc1ncc(F)cc1C(=O)Nc1cccc(-c2nncn2[C@@H](C)C(F)(F)F)n1
Adenosine receptor A2a
  IC50: > 1000 nM
[1]
  inhibition: Active
[2]
  inhibition: Active
[3]
  IC50: 25 nM
[4]
  IC50: 7 nM
[5]
  IC50: > 1000 nM
[6]
  inhibition: Active

Source: ChEMBL document CHEMBL4842388, “Discovery of Potent, Selective, and Brain-Penetrant Apoptosis Signal-Regulating Kinase 1 (ASK1) Inhibitors that Modulate Brain Inflammation In Vivo” (J Med Chem, 2021)
